Results: patent publication US8686155B2, “Aurora kinase modulators and method of use” (Amgen Inc., priority 2006, dated 2014)
Where two headings read alike, the source gives them in different places.

Key:
[1] = system: phosphorylation of Histone H3 in HeLa cells; experiment: HeLa cell 1-hour phospho-histone assay; type: cell-based; conditions: Homo sapiens, % of cells pHH3 positive, unit inferred, read-out: inhibitory activity (EC50) in the phospho-histone H3 assay
Experimental: HeLa Cell 1-Hour Phospho-Histone Assay
The purpose of this assay is to test the inhibitory effect of Aurora compounds with respect to phosphorylation of Histone H3 in the cellular context. HeLa cells (9×10^4/well) are plated in black 96-well flat-bottom tissue culture plates and incubated for 40 hours prior to compound addition. Compounds are serially diluted in DMSO, followed by dilution into MEM containing 10 mM HEPES; 10 ul/well of diluted compounds are added to cells (0.5% DMSO final). Cells are incubated for 1 hour at 37° C. in 5% CO2. Cells are then fixed with 3.7% formaldehyde for 10 minutes, washed with wash buffer (1% goat serum and 0.1% Tween 20 in PBS), then permeabilized with 0.5% Triton X in PBS for 15 minutes. After washing with wash buffer, cells are incubated with primary antibody (Upstate #06-507 anti-phospho-histone (Ser 10) antibody (pHH3) for 1 hour at 10 ug/ml. After 2 washes with wash buffer, cells are incubated with secondary antibody (Molecular Probes #A11034 goat anti-rabbit Alexa-488 for 1 hour at 1 ug/ml+Hoechst 33342 nuclear dye at 1 ug/ml (Molecular Probes). Cells are washed 2 times with wash buffer, and buffer replaced with PBS. Plates are scanned on the Cellomics Array Scan (6 fields, ˜2000 cells/well) and % of cells that are pHH3 positive were calculated using the Cellomics algorithm.

[2] = target: T1, AuroraB (Homo sapiens, UniProt Q96GD4); experiment: AuroraB Homogeneous Time Resolved Fluorescent (HTRF) kinase assay; type: biochemical
T1 construct: 20 μL of AuroraB FL His; His
Experimental: AuroraB-Homogeneous Time Resolved Fluorescent (HTRF) Kinase Assay:
The AuroraB HTRF assay begins with AuroraB in the presence of ATP phosphorylating the biotinylated peptide Histone H3. The reaction incubates for about 90 min. the reaction is quentched by addition of detection reagents, which stop the reaction by diluting out the enzyme and chelating the metals due to the presence of EDTA. After addition, the assay is incubated for about 60 min to allow detection reagents to equilibrate.
The AuroraB HTRF assay comprises 1 μL of compound in 100% DMSO, 20 μL of ATP and biotinylated Histone H3, and 20 μL of AuroraB FL His for a final volume of 41 μL. The final concentration of Histone H3 is 0.1 μM. The final concentration of ATP is 23 μM (Km(app)=23 μM+/−2.6) and the final concentration of AuroraB is 400 pM. Buffer conditions are as follows: 50 mM HEPES pH 7.5, 5 mM NaCl, 0.5 mM MgCl, 0.5 mM MnCl, 2 mM DTT, 0.05% BSA.
(§1) The assay is quenched and stopped with 160 μl, of detection reagent. Detection reagents are as follows: Buffer made of 50 mM Tris, pH 7.5, 100 mM NaCl, 3 mM EDTA, 0.05% BSA, 0.1% Tween20. Added to this buffer prior to reading is Steptavidin allophycocyanin (SA-APC) at a final conc in the assay of 0.001 mg/mL, and europilated anti-phosphoHistoneH3 Ab (Eu-anti-His H3) at a final conc of 0.064 nM.
The assay plate is read in either a Discovery or a RubyStar. The eu-anti-HisH3 is excited at 320 nm and emits at 615 nm to excite the SA-APC which in turn emits at 655 nm. The ratio of SA-APC at 655 nm (excited due to close proximity to the Eu-anti-H HisH3 because of phosphorylation of the peptide) to free Eu-anti-HisH3 at 615 nm will give substrate phosphorylation.

[3] = target: T2, AuroraA-TPX2 (Homo sapiens, UniProt O14965); experiment: AuroraA-TPX2 Homogeneous Time Resolved Fluorescent (HTRF) kinase assay; type: biochemical
T2 construct: 20 μL of AuroraA-TPX2 KD GST; GST
T2 sequence (O14965 133-383 limits assumed): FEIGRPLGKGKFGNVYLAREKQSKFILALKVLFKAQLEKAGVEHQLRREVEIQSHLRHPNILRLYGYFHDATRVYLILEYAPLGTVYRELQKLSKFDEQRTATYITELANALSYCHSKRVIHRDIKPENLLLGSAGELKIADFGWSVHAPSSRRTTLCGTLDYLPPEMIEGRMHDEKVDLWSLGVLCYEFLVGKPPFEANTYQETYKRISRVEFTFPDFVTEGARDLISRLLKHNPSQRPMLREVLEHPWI
T2 sequence (Q9ULW0 1-43 partner limits assumed): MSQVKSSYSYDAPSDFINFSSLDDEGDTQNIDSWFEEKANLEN
Experimental: AuroraA-TPX2-Homogeneous Time Resolved Fluorescent (HTRF) Kinase Assay
The Aurora-A HTRF assay begins with Aurora-A in the presence of ATP phosphorylating the biotinylated peptide PLK. The reaction incubates for about 120 min. Detection reagents are added to quench the reaction. These agents stop the reaction by diluting out the enzyme and chelating the metals due to the presence of EDTA. After addition, the assay is incubated overnight to allow the detection reagents to equilibrate.
The final concentration of PLK is about 1 μM. […] Buffer conditions are as follows: 60 mM HEPES pH 7.5, 25 mM NaCl, 10 mM MgCl, 2 mM DTT, 0.05% BSA.
as §1, with “μL” for “μl,”, “0.0005” for “0.001”, “anti-phosphoPLK” for “anti-phosphoHistoneH3”, “(Eu-anti-PLK)” for “(Eu-anti-His H3)”, “0.02” for “0.064”
The assay plate is read in either a Discovery or a RubyStar. The eu-anti-PLK is excited at 320 nm and emits at 615 nm to excite the SA-APC which in turn emits at 655 nm.

[4] = ATP 23 μM, biotinylated peptide Histone H3, read-out: average activity in the Aurora kinase B HTRF assay
[5] = ATP about 1 μM, biotinylated peptide PLK, read-out: average activity in the Aurora kinase A HTRF assay
[6] = class symbols, read-out: AurA/TPX2_IC50_IP (Avg)
[7] = class symbols, read-out: AurB_IC50_IP (Avg)
[8] = numeric values, unit inferred, read-out: AurB_IC50_IP (Avg)
[9] = numeric values, unit inferred, read-out: AurA/TPX2_IC50_IP (Avg)

T1 sequence (Q96GD4 whole entry): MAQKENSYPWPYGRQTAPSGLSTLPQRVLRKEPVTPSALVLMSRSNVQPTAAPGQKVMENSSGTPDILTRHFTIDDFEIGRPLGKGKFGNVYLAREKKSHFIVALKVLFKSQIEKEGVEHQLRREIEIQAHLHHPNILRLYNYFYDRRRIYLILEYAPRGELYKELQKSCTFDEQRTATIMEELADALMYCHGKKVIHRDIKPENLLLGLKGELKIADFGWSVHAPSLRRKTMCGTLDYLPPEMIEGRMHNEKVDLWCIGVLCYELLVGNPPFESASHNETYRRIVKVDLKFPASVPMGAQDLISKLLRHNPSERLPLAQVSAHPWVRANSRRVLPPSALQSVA

Row | Compound | IC50 [3, 6] | IC50 [2, 7] | further results
1 | CNc1nccc(-c2cccnc2Oc2ccc(Nc3nnc(-c4ccccc4)c4c3C3CCC4CC3)cc2)n1 [Example 107, N-(4-((3-(2-(methylamino)-4-pyrimidinyl)-2-pyridinyl)oxy)phenyl)-6-phenyl-4,5-diazatricyclo [6.2.2.0~2,7~]dodeca-2,4,6-trien-3-amine] |  |  | EC50 [1]: < 1000 nM
2 | CNc1cc(-c2cnccc2Oc2ccc(Nc3nnc(-c4ccccc4)c4ccccc34)cc2)ccn1 [Example 242, N-(4-(3-(2-(methylamino)pyridin-4-yl)pyridin-4-yloxy)phenyl)-4-phenylphthalazin-1-amine] |  |  | IC50 [2, 4]: ≤ 100 nM; IC50 [3, 5]: ≤ 100 nM
3 | c1ccc(-c2nnc(Nc3ccc(Oc4ncncc4-c4ccncc4)cc3)c3ccccc23)cc1 [Example 243, 4-phenyl-N-(4-(5-(pyridin-4-yl)pyrimidin-4-yloxy)phenyl)phthalazin-1-amine] |  |  | IC50 [2, 4]: ≤ 100 nM; IC50 [3, 5]: ≤ 100 nM
4 | CNc1nccc(-c2cccnc2Oc2ccc(Oc3nnc(-c4ccccc4)c4ccccc34)cc2)n1 [Example 244, N-methyl-4-(2-(4-(4-phenylphthalazin-1-yloxy)phenoxy)pyridin-3-yl)pyrimidin-2-amine] |  |  | IC50 [2, 4]: ≤ 100 nM; IC50 [3, 5]: ≤ 100 nM
5 | CC(C)c1nnc(Nc2ccc(Oc3ncccc3-c3ccnc(N)n3)nc2)c2ccccc12 [compound 269] | 100 to 500 nM |  | 
6 | Cc1cccc(-c2nnc(Nc3ccc(Oc4ncccc4-c4ccnc(N)n4)cc3)c3ccccc23)n1 [compound 271] |  |  | IC50 ([2]; numeric values, read-out: AurB_IC50_IP (Avg)): 1 nM; IC50 ([3]; numeric values, read-out: AurA/TPX2_IC50_IP (Avg)): 24.3 nM
7 | COCc1cccc(-c2nnc(Nc3ccc(Oc4ncccc4-c4ccnc(N)n4)cc3)c3ccccc23)n1 [compound 298] | ≤ 100 nM | ≤ 100 nM | 
8 | Nc1nccc(-c2cccnc2Oc2ccc(Nc3nnc(-c4ccccc4)c4ccccc34)cn2)n1 [compound 415] | ≤ 100 nM | ≤ 100 nM | 
9 | Cc1csc(-c2nnc(Nc3ccc(Oc4ncccc4-c4ccnc(N)c4)cc3)c3ccccc23)c1 [compound 416] |  |  | IC50 [2, 8]: 14.5 nM; IC50 [3, 9]: 54.1 nM
10 | Cc1cc(-c2ccccc2)nnc1Nc1ccc(Oc2ncccc2-c2ccnc(N)c2)cc1 [compound 418] | ≤ 100 nM | ≤ 100 nM | 
11 | Cc1csc(-c2cc(C)c(Nc3ccc(Oc4ncccc4-c4ccnc(N)c4)cc3)nn2)c1 [compound 419] | ≤ 100 nM | ≤ 100 nM | 
12 | CCc1cc(-c2ccccc2)nnc1Nc1ccc(Oc2ncccc2-c2ccnc(N)c2)cc1 [compound 420] |  |  | IC50 [2, 8]: 7.1 nM; IC50 [3, 9]: 56.8 nM
13 | O=C(O)CCCNc1nccc(-c2cccnc2Oc2ccc(Nc3nnc(-c4ccccc4)c4ccccc34)cc2)n1 [compound 427] | ≤ 100 nM | ≤ 100 nM | 
14 | Cc1csc(-c2cc(C)c(Nc3ccc(Oc4ncccc4-c4ccncc4)cc3)nn2)c1 [compound 428] | ≤ 100 nM | ≤ 100 nM | 
15 | Cc1cc(-c2ccccc2)nnc1Nc1ccc(Oc2ncccc2-c2ccnc(NCCCO)n2)cc1 [compound 429] | ≤ 100 nM | ≤ 100 nM | 
16 | Cc1cc(-c2ccccc2)nnc1Nc1ccc(Oc2ncccc2-c2ccnc(NCCCC(=O)O)n2)cc1 [compound 430] | ≤ 100 nM | ≤ 100 nM | 
17 | Nc1cc(-c2cccnc2Oc2ccc(Nc3nnc(-c4ccccc4)c4ccccc34)cn2)ccn1 [compound 431] | ≤ 100 nM | ≤ 100 nM | 

Row | Compound | IC50 [3, 6] | IC50 [2, 7] | further results
18 | O=c1cc(-c2cccnc2Oc2ccc(Nc3nnc(-c4ccccc4)c4ccccc34)cc2)cc[nH]1 [compound 432] |  | 500 to 2500 nM | 
19 | Cc1csc(-c2cc(C)c(Nc3ccc(Oc4ncccc4-c4ccnc(N)c4)cc3)nn2)n1 [compound 434] |  |  | IC50 [2, 8]: 9.5 nM; IC50 [3, 9]: 98.6 nM
20 | CCc1cc(-c2ccccc2)nnc1Nc1ccc(Oc2ncccc2-c2ccnc(N)n2)cc1 [compound 435] | ≤ 100 nM | ≤ 100 nM | 
21 | N#Cc1cccc(-c2ccncc2)c1Oc1ccc(Nc2nnc(-c3ccccc3)c3ccccc23)cc1 [compound 436] | 100 to 500 nM | ≤ 100 nM | 
22 | COc1ccccc1-c1nnc(Nc2ccc(Oc3ncccc3-c3ccnc(N)n3)cc2)c2ccccc12 [compound 437] | ≤ 100 nM | ≤ 100 nM | 
23 | COc1cccc(-c2nnc(Nc3ccc(Oc4ncccc4-c4ccnc(N)n4)cc3)c3ccccc23)c1 [compound 438] | ≤ 100 nM | ≤ 100 nM | 
24 | CCc1cc(-c2ccccc2)nnc1Nc1ccc(Oc2ncccc2-c2ccnc(N)n2)nc1 [compound 439] | ≤ 100 nM | ≤ 100 nM | 
25 | COc1ccccc1-c1nnc(Nc2ccc(Oc3ncccc3-c3ccnc(N)n3)nc2)c2ccccc12 [compound 440] | ≤ 100 nM | ≤ 100 nM | 
26 | COc1cccc(-c2nnc(Nc3ccc(Oc4ncccc4-c4ccnc(N)c4)cc3)c3ccccc23)c1 [compound 441] | 100 to 500 nM | 100 to 500 nM | 
27 | COc1ccccc1-c1nnc(Nc2ccc(Oc3ncccc3-c3ccnc(N)c3)cc2)c2ccccc12 [compound 442] |  |  | IC50 [2, 8]: 33 nM; IC50 [3, 9]: 375 nM
28 | COc1cccc(-c2cc(C)c(Nc3ccc(Oc4ncccc4-c4ccnc(N)n4)cc3)nn2)c1 [compound 443] | ≤ 100 nM | ≤ 100 nM | 
29 | CCc1cc(-c2ccccc2)nnc1Nc1ccc(Oc2ncccc2-c2ccnc(N)c2)nc1 [compound 444] | 100 to 500 nM | ≤ 100 nM | 
30 | CCCc1cc(-c2ccccc2)nnc1Nc1ccc(Oc2ncccc2-c2ccnc(N)n2)cc1 [compound 445] |  |  | IC50 [2, 8]: 3.1 nM; IC50 [3, 9]: 23.5 nM
31 | COCc1cc(-c2ccccc2)nnc1Nc1ccc(Oc2ncccc2-c2ccnc(N)n2)cc1 [compound 446] | ≤ 100 nM | ≤ 100 nM | 
32 | Oc1cccc(-c2ccncc2)c1Oc1ccc(Nc2nnc(-c3ccccc3)c3ccccc23)cc1 [compound 447] |  | 500 to 2500 nM | 
33 | COc1cccc(-c2ccncc2)c1Oc1ccc(Nc2nnc(-c3ccccc3)c3ccccc23)cc1 [compound 448] |  |  | IC50 [2, 8]: 9.6 nM; IC50 [3, 9]: 110 nM
